Test results taken from patent US20230106220A1, “METHOD FOR TREATMENT OF ROSACEA” (Sol-Gel Technologies Ltd., priority 2019, published 2023).

Key:
[1] = system: inflammatory lesions (papules, pustules) of patients with papulopustular rosacea; assay: Inflammatory lesion count change from baseline, 12-week vehicle-controlled study of E-BPO cream; format: in vivo, human
Protocol: (§1) Description: A multi-center, double-blind, randomized, vehicle-controlled, dose-range study of encapsulated 5% benzoyl peroxide (E-BPO) Cream and vehicle cream was performed to assess the efficacy and safety of E-BPO compared to vehicle. Study duration was 12 weeks and included approximately 350 male and female patients afflicted with papulopustular rosacea. Patients were at least 18 years of age, and met the inclusion/exclusion criteria described herein.
(§2) Dosing: Patients were randomized in a 2:1 ratio to the study product or vehicle treatment group, respectively. […]
(§3) Patients were admitted into the study after meeting all inclusion/exclusion criteria, including a clinical diagnosis of rosacea and after written informed consent has been obtained. […] At each visit, a 5-point IGA scale of rosacea; rosacea erythema, and telangiectasia; and inflammatory (papules, pustules) lesion counts were performed and recorded.
(§4) Evaluation of efficacy: The first application of the test product was applied at the investigational site at the end of the Baseline visit (Day 0) under the supervision and instruction of the designated investigational site staff. […] The evaluator also assessed local application site irritation (dryness, scaling, pruritus, stinging and burning) at Baseline and Weeks 2, 4, 8 and 12 (end of study). […]

rosacea = details: BPO as the sole active agent; cited from earlier work
[2] = system: patients afflicted with papulopustular rosacea; assay: IGA success (2-grade improvement to clear or almost clear), 12-week double-blind vehicle-controlled study of E-BPO cream; format: in vivo, human; details: four weeks
Protocol: as §1, §2, §3, §4

Q: Which “decrease in inflammatory lesions relative to the effect observed after treatment with vehicle cream” value ([1]; after at least 12 weeks of treatment) does the source give for `O=C(OOC(=O)c1ccccc1)c1ccccc1` [BPO, Benzoyl peroxide] here?
A: more than 1.5 x

Q: And the “decrease in inflammatory lesions” value ([1]; after only 2 weeks of treatment, on average)?
A: about 40%

Q: And the response of lesions (rosacea)?
A: unresponsive

Q: And the “success in IGA relative to the effect observed after treatment with SOOLANTRA” value [2]?
A: more than twice
